Measured values reported in paper PMC7127579 (Febs Letters, 2006).

Biological target: T1, FhePrx (recombinant 2-Cys peroxiredoxin of Fasciola hepatica) (Fasciola hepatica, UniProt P91883)
T1 sequence (P91883 1-194): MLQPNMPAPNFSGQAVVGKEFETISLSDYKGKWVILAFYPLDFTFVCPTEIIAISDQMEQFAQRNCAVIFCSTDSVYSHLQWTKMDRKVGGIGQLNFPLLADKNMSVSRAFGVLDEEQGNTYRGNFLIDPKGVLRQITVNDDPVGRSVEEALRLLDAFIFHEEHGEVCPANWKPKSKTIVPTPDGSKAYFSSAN
Experiment: coupled NADPH oxidation assay
Format: biochemical
Conditions: E. coli thioredoxin and thioredoxin reductase, 0.25 mM NADPH, 1 mM EDTA, 5 mM potassium phosphate pH 7.0, 22 °C

Row | SMILES | Km [µM]
1 | CC(C)(C)OO [t-Butyl hydroperoxide] | 18.6
2 | CC(C)(OO)c1ccccc1 [Cumene hydroperoxide] | 12.7
